The record followed here is US12286442B2, “Methods and materials for increasing transcription factor eb polypeptide levels” (University of Pittsburgh—Of the Commonwealth System of …, priority 2019, dated 2025).

One data set relates to TFEB. The data set is described as follows: High content screen measuring TFEB nuclear accumulation (TFEB nuclear/cytosol ratio) in BEAS-2B cells stably expressing TFEB-EGFP. The format is cell-based, human. The note with it: 18 hours incubation. In a few lines: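 Readout: lowest compound concentration giving a 25% rise in nuclear/cytosol TFEB-GFP ratio, from DAPI-masked nuclear and mask-expanded cytosolic signals. Cells (BEAS-2B, TFEB-EGFP stable, ~2300–2500/well) rested 8 hours, then treated 18 hours with compound serial dilutions in 2% FBS medium before PFA fixation and DAPI staining.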

Another data set concerns BEAS-2B cells. The data set is described as follows: Toxicity: compound concentration needed to induce greater than 50 percent of cell loss. The format is cell-based, human. To be noted: 18 hours incubation. An outline of the steps: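 Reported value is the concentration giving greater than 50 percent cell loss, grouped into bins (≥25 μM; between 1 and 25 μM; ≤1 μM as "+++"). Measured by high-content imaging of DAPI-stained BEAS-2B TFEB-EGFP cells fixed after 18 h compound exposure.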

In the case of `CC(C)c1nc2ccc(Nc3nc(-c4ccncc4)nc4ccncc34)cc2s1` [Compound 120], the “efficacy (minimal compound concentration needed to increase TFEB nuclear/cytosol ratio by 25%)” value with TFEB is recorded as “+ (“+” equals >25 μM)”. In addition, the “toxicity (compound concentration needed to induce greater than 50 percent of cell loss)” value in the data set on BEAS-2B cells is reported as “+ (cell loss of greater than 50 percent at a concentration that equals or is greater than 25 μM was represented as)”.
As to `c1cc(-c2nc(Nc3ccc4nc(C5CC5)sc4c3)c3cnccc3n2)ccn1` [Compound 121], the “efficacy (minimal compound concentration needed to increase TFEB nuclear/cytosol ratio by 25%)” value with TFEB was “+ (“+” equals >25 μM)”. Besides, the “toxicity (compound concentration needed to induce greater than 50 percent of cell loss)” value in the data set on BEAS-2B cells is reported as “+ (cell loss of greater than 50 percent at a concentration that equals or is greater than 25 μM was represented as)”.
As for `c1cc(-c2nc(Nc3ccc4ncsc4c3)c3cnccc3n2)ccn1` [Compound 122], the “efficacy (minimal compound concentration needed to increase TFEB nuclear/cytosol ratio by 25%)” value in the data set on TFEB is “+ (“+” equals >25 μM)”. Also, in the data set on BEAS-2B cells, the “toxicity (compound concentration needed to induce greater than 50 percent of cell loss)” value is given as “+ (cell loss of greater than 50 percent at a concentration that equals or is greater than 25 μM was represented as)”.
In the case of `c1cc(-c2nc(Nc3ccc4c(c3)OCO4)c3cnccc3n2)ccn1` [Compound 123], the “efficacy (minimal compound concentration needed to increase TFEB nuclear/cytosol ratio by 25%)” value with TFEB was “++ (“++” equals between ≤25 μM and >1 μM)”. The “toxicity (compound concentration needed to induce greater than 50 percent of cell loss)” value in the data set with BEAS-2B cells was “+ (cell loss of greater than 50 percent at a concentration that equals or is greater than 25 μM was represented as)”.
`CC(C)(C)c1cc2cc(Nc3nc(-c4ccncc4)nc4ccncc34)ccc2[nH]1` [Compound 124]: in the data set with TFEB, the “efficacy (minimal compound concentration needed to increase TFEB nuclear/cytosol ratio by 25%)” value is on record as “+++ (“+++” equals ≤1 μM)”. Besides, in the data set on BEAS-2B cells, the “toxicity (compound concentration needed to induce greater than 50 percent of cell loss)” value is given as “+ (cell loss of greater than 50 percent at a concentration that equals or is greater than 25 μM was represented as)”.
`c1cc(-c2nc(Nc3ccc4cn[nH]c4c3)c3cnccc3n2)ccn1` [Compound 125]: the “efficacy (minimal compound concentration needed to increase TFEB nuclear/cytosol ratio by 25%)” value in the data set with TFEB was “++ (“++” equals between ≤25 μM and >1 μM)”. In addition, in the data set on BEAS-2B cells, the “toxicity (compound concentration needed to induce greater than 50 percent of cell loss)” value is reported as “+ (cell loss of greater than 50 percent at a concentration that equals or is greater than 25 μM was represented as)”.
Turning to `Cc1c(Nc2nc(-c3ccncc3)nc3ccncc23)ccc2[nH]ccc12` [Compound 126], the “efficacy (minimal compound concentration needed to increase TFEB nuclear/cytosol ratio by 25%)” value with TFEB is “++ (“++” equals between ≤25 μM and >1 μM)”. For the same molecule, the “toxicity (compound concentration needed to induce greater than 50 percent of cell loss)” value in the data set on BEAS-2B cells was “+ (cell loss of greater than 50 percent at a concentration that equals or is greater than 25 μM was represented as)”.
With `c1cnc2ccc(Nc3nc(-c4ccncc4)nc4ccncc34)cc2c1` [Compound 127], the “efficacy (minimal compound concentration needed to increase TFEB nuclear/cytosol ratio by 25%)” value in the data set with TFEB was “++ (“++” equals between ≤25 μM and >1 μM)”. Also, in the data set with BEAS-2B cells, the “toxicity (compound concentration needed to induce greater than 50 percent of cell loss)” value is recorded as “+ (cell loss of greater than 50 percent at a concentration that equals or is greater than 25 μM was represented as)”.
For the molecule `Cc1nc2ccc(Nc3nc(-c4ccncc4)nc4ncccc34)cc2s1` [Compound 128], the “efficacy (minimal compound concentration needed to increase TFEB nuclear/cytosol ratio by 25%)” value in the data set with TFEB is “+++ (“+++” equals ≤1 μM)”. In addition, the “toxicity (compound concentration needed to induce greater than 50 percent of cell loss)” value with BEAS-2B cells is on record as “+ (cell loss of greater than 50 percent at a concentration that equals or is greater than 25 μM was represented as)”.
For the molecule `CCc1nc2ccc(Nc3nc(-c4ccncc4)nc4ncccc34)cc2s1` [Compound 129], the “efficacy (minimal compound concentration needed to increase TFEB nuclear/cytosol ratio by 25%)” value with TFEB is reported as “+++ (“+++” equals ≤1 μM)”. In addition, in the data set with BEAS-2B cells, the “toxicity (compound concentration needed to induce greater than 50 percent of cell loss)” value is “+ (cell loss of greater than 50 percent at a concentration that equals or is greater than 25 μM was represented as)”.
On to `CC(C)c1nc2ccc(Nc3nc(-c4ccncc4)nc4ncccc34)cc2s1` [Compound 130], for which the “efficacy (minimal compound concentration needed to increase TFEB nuclear/cytosol ratio by 25%)” value in the data set on TFEB is listed as “+++ (“+++” equals ≤1 μM)”. Further, the “toxicity (compound concentration needed to induce greater than 50 percent of cell loss)” value in the data set with BEAS-2B cells is reported as “+ (cell loss of greater than 50 percent at a concentration that equals or is greater than 25 μM was represented as)”.
For `c1cnc2nc(-c3ccncc3)nc(Nc3ccc4nc(C5CC5)sc4c3)c2c1` [Compound 131], in that order: “+++ (“+++” equals ≤1 μM)” and “+ (cell loss of greater than 50 percent at a concentration that equals or is greater than 25 μM was represented as)”.
For `c1cnc2nc(-c3ccncc3)nc(Nc3ccc4ncsc4c3)c2c1` [Compound 132], in that order: “+++ (“+++” equals ≤1 μM)” and “+ (cell loss of greater than 50 percent at a concentration that equals or is greater than 25 μM was represented as)”.
Take `CC(C)(C)c1cc2cc(Nc3nc(-c4ccncc4)nc4ncccc34)ccc2[nH]1` [Compound 134]: the “efficacy (minimal compound concentration needed to increase TFEB nuclear/cytosol ratio by 25%)” value in the data set with TFEB is given as “+++ (“+++” equals ≤1 μM)”. The “toxicity (compound concentration needed to induce greater than 50 percent of cell loss)” value in the data set on BEAS-2B cells is “+ (cell loss of greater than 50 percent at a concentration that equals or is greater than 25 μM was represented as)”.
Take `c1cnc2nc(-c3ccncc3)nc(Nc3ccc4cn[nH]c4c3)c2c1` [Compound 135]: in the data set with TFEB, the “efficacy (minimal compound concentration needed to increase TFEB nuclear/cytosol ratio by 25%)” value was “++ (“++” equals between ≤25 μM and >1 μM)”. For the same molecule, in the data set with BEAS-2B cells, the “toxicity (compound concentration needed to induce greater than 50 percent of cell loss)” value is listed as “+ (cell loss of greater than 50 percent at a concentration that equals or is greater than 25 μM was represented as)”.
Regarding `c1cnc2nc(-c3ccncc3)nc(Nc3ccc4cnsc4c3)c2c1` [Compound 136], in the data set on TFEB, the “efficacy (minimal compound concentration needed to increase TFEB nuclear/cytosol ratio by 25%)” value is listed as “+++ (“+++” equals ≤1 μM)”. Moreover, in the data set on BEAS-2B cells, the “toxicity (compound concentration needed to induce greater than 50 percent of cell loss)” value was “+ (cell loss of greater than 50 percent at a concentration that equals or is greater than 25 μM was represented as)”.
For `Cc1c(Nc2nc(-c3ccncc3)nc3ncccc23)ccc2[nH]ccc12` [Compound 137], in that order: “+++ (“+++” equals ≤1 μM)” and “+ (cell loss of greater than 50 percent at a concentration that equals or is greater than 25 μM was represented as)”.
Consider `c1cnc2ccc(Nc3nc(-c4ccncc4)nc4ncccc34)cc2c1` [Compound 138], for which, in the data set on TFEB, the “efficacy (minimal compound concentration needed to increase TFEB nuclear/cytosol ratio by 25%)” value is given as “+++ (“+++” equals ≤1 μM)”. Also, the “toxicity (compound concentration needed to induce greater than 50 percent of cell loss)” value in the data set with BEAS-2B cells is “+ (cell loss of greater than 50 percent at a concentration that equals or is greater than 25 μM was represented as)”.
`c1cc(-c2nc(Nc3ccc4cnsc4c3)c3cnccc3n2)ccn1` [Compound 139]: the “efficacy (minimal compound concentration needed to increase TFEB nuclear/cytosol ratio by 25%)” value in the data set on TFEB is recorded as “+ (“+” equals >25 μM)”. Also, in the data set with BEAS-2B cells, the “toxicity (compound concentration needed to induce greater than 50 percent of cell loss)” value was “+ (cell loss of greater than 50 percent at a concentration that equals or is greater than 25 μM was represented as)”.
For `Cc1nc2ccc(Nc3nc(-c4ccncc4)nc4ccncc34)cc2o1` [Compound 140], in that order: “+ (“+” equals >25 μM)” and “+ (cell loss of greater than 50 percent at a concentration that equals or is greater than 25 μM was represented as)”.
`Cn1cnc2ccc(Nc3nc(-c4ccncc4)nc4ccccc34)cc21` [Compound 141]: the “efficacy (minimal compound concentration needed to increase TFEB nuclear/cytosol ratio by 25%)” value with TFEB was “+++ (“+++” equals ≤1 μM)”. Also, the “toxicity (compound concentration needed to induce greater than 50 percent of cell loss)” value in the data set on BEAS-2B cells is “++ (cell loss of greater than 50 percent at a concentration less than 25 μM and greater than 1 μM was represented as)”.
As for `c1ccc2c(Nc3ccc4ncoc4c3)nc(-c3ccncc3)nc2c1` [Compound 142], the “efficacy (minimal compound concentration needed to increase TFEB nuclear/cytosol ratio by 25%)” value in the data set on TFEB is “+++ (“+++” equals ≤1 μM)”. In addition, in the data set on BEAS-2B cells, the “toxicity (compound concentration needed to induce greater than 50 percent of cell loss)” value is given as “+ (cell loss of greater than 50 percent at a concentration that equals or is greater than 25 μM was represented as)”.
For `Cc1nc2cc(Cl)c(Nc3nc(-c4ccncc4)nc4ccccc34)cc2o1` [Compound 143], in that order: “+++ (“+++” equals ≤1 μM)” and “+ (cell loss of greater than 50 percent at a concentration that equals or is greater than 25 μM was represented as)”.
As to `Cc1nc2cc(Cl)c(Nc3nc(-c4ccncc4)nc4ccncc34)cc2o1` [Compound 144], the “efficacy (minimal compound concentration needed to increase TFEB nuclear/cytosol ratio by 25%)” value in the data set with TFEB is given as “+ (“+” equals >25 μM)”. Besides, in the data set on BEAS-2B cells, the “toxicity (compound concentration needed to induce greater than 50 percent of cell loss)” value is “+ (cell loss of greater than 50 percent at a concentration that equals or is greater than 25 μM was represented as)”.
`Cc1nc2cc(Cl)c(Nc3nc(-c4ccncc4)nc4ncccc34)cc2o1` [Compound 145]: in the data set with TFEB, the “efficacy (minimal compound concentration needed to increase TFEB nuclear/cytosol ratio by 25%)” value was “+++ (“+++” equals ≤1 μM)”. The “toxicity (compound concentration needed to induce greater than 50 percent of cell loss)” value in the data set on BEAS-2B cells is “+ (cell loss of greater than 50 percent at a concentration that equals or is greater than 25 μM was represented as)”.
As for `Cc1nc2ccc(Nc3nc(-c4ccncc4)nc4ncccc34)cc2o1` [Compound 146], the “efficacy (minimal compound concentration needed to increase TFEB nuclear/cytosol ratio by 25%)” value with TFEB was “+++ (“+++” equals ≤1 μM)”. In addition, in the data set with BEAS-2B cells, the “toxicity (compound concentration needed to induce greater than 50 percent of cell loss)” value is reported as “+ (cell loss of greater than 50 percent at a concentration that equals or is greater than 25 μM was represented as)”.
Take `CCc1nc2ccc(Nc3nc(-c4ccncc4)nc4ccc(C)cc34)cc2s1` [Compound 147]: the “efficacy (minimal compound concentration needed to increase TFEB nuclear/cytosol ratio by 25%)” value in the data set on TFEB is “++ (“++” equals between ≤25 μM and >1 μM)”. Also, the “toxicity (compound concentration needed to induce greater than 50 percent of cell loss)” value with BEAS-2B cells was “+ (cell loss of greater than 50 percent at a concentration that equals or is greater than 25 μM was represented as)”.
